# pIC50: −log10 of the molar value. Read-outs that look alike come from different tables or passages of the source.
# Target: T1, AKT Kinase-NanoLuc fusion in HEK-293 cells (Homo sapiens, UniProt P31749)
# T1 construct: host or cells: HEK-293
# Test: NanoBRET target engagement assay in transfected HEK-293 cells, AKT
# Type: cell-based
# From the text: The NanoBRET™ assay measures kinase engagement in real time in the context of the intact cell. The assay uses a Kinase-NanoLuc® fusion vector expressing a kinase protein to which a luciferase tag has been added, a cell-permeant fluorescent NanoBRET™ tracer, a NanoLuc® substrate, and an extracellular NanoLuc® inhibitor. Upon expression of the luciferase-tagged kinase, cells will produce a strong BRET signal only in the presence of the NanoBRET™ tracer. The extracellular NanoLuc® inhibitor ensures that the BRET signal observed emanates only from live cells. Because the BRET signal has tight distance constraints, addition of the test compound will decrease the BRET signal if the compound competes with the NanoBRET™ tracer for binding to the kinase domain. Under the appropriate tracer conditions established by the manufacturer, quantitative intracellular affinity and relative potency can then be determined using Mass Action model equations.
# HEK-293 cells were purchased from ATCC. FuGENEHD Transfection Reagent, Kinase-NanoLuc® fusion plasmids, Transfection Carrier DNA, NanoBRET™ Tracers and dilution buffer, NanoBRET™ Nano-Glo Substrate, Extracellular NanoLuc® Inhibitor were obtained from Promega.
# Assays were conducted following Promega assay protocol with some modifications as described further below. HEK-293 Cells were transiently transfected with Kinase-NanoLuc® Fusion Vector DNA by FuGENE HD Transfection Reagent. Test compounds were delivered into 384 well assay plate by Echo 550 (Labcyte Inc, Sunnyvale, CA). Transfected cells were harvested and mixed with NanoBRET™ Tracer Reagent and dispensed into 384 well plates and incubated at 37° C. in 5% CO2 cell culture incubator for 1 hour. The NanoBRET™ Nano-Glo Substrate plus Extracellular NanoLuc® Inhibitor Solution were added into the wells of the assay plate and incubated for 2-3 minutes at room temperature. The donor emission wavelength (460 nm) and acceptor emission wavelength (600 nm) were measured in the EnVision plate reader. The BRET Ratios were calculated. BRET Ratio=[(Acceptor sample÷Donor sample)−(Acceptor no-tracer control÷Donor no-tracer control)]. The IC50 values of compounds were calculated with Prism GraphPad program.
# • 1. Transient Transfection of HEK-293 Cells NanoLuc® Fusion Vector DNA • 1). Cultivate HEK-293 cells (70-80% confluence) appropriately prior to assay. Trypsinize and collect HEK-293 cells. • 2). Prepare lipid: DNA complexes as follows: • a. Prepare a […] solution of DNA in Opti-MEM™ without serum that consists of the following ratios of carrier DNA and DNA encoding NanoLuc® fusion. 9.0 µg/mL of Transfection Carrier DNA, […] of NanoLuc® fusion vector DNA and 1 mL of Opti-MEM™ without phenol red. Mix thoroughly. • b. Add 30 μl of FuGENE HD Transfection Reagent into each milliliter of DNA mixture to form lipid: DNA complex. • c. Mix by inversion 10 times. • d. Incubate at ambient temperature for 20 minutes to allow complexes to form. • 3). In a sterile, conical tube, mix 1 part of lipid: DNA complex with 20 parts of HEK-293 cells in suspension. Mix gently by inversion 5 times. • 4). Dispense cells+lipid: DNA complex into a sterile tissue culture dish and incubate for 22-24 hours. • 2. Addition of Test Compounds (dry plate shooting): Each test compound is delivered from the compound source plate to the wells of 384-well white NBS plate by Echo 550. • 3. Preparation of Cells with NanoBRET™ Tracer Reagent • 1). Remove medium from dish with transfected HEK-293 cells via aspiration, trypsinize and allow cells to dissociate from the dish. • 2). Neutralize trypsin using medium containing serum and centrifuge at 200× g for 5 minutes to pellet the cells. Adjust the cell density to 2×10^5 cells/mL in Opti-MEM™ without phenol red. • 3). Prepare Complete 20× NanoBRET™ Tracer Reagent with Tracer Dilution Buffer. • 4). Dispense one part of Complete 20× NanoBRET™ Tracer Reagent to 20 parts of cells in the tube. Mix gently by inversion 10 times. • 5). […]
# [1] = Table 28, NanoBRET, HEK-293 cells, read-out: AKT1 (Cellular) IC50
# [2] = Table 32, NanoBRET, HEK-293 cells, read-out: AKT (Cellular) IC50
# [3] = cellular, read-out: AKT (Cellular) IC50
# T1 sequence (P31749 whole entry, the tested form may be a part): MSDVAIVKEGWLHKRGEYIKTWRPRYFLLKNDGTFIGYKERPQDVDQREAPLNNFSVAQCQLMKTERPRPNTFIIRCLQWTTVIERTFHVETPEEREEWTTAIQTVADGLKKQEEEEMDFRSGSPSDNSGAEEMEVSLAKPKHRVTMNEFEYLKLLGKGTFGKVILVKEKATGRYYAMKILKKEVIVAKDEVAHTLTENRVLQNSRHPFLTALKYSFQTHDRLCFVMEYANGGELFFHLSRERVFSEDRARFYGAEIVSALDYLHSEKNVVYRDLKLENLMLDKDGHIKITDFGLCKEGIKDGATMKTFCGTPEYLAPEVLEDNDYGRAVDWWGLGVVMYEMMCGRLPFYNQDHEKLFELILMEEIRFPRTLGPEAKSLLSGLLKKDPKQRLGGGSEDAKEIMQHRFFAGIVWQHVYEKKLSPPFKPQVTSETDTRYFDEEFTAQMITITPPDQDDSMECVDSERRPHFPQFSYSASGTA
pIC50 [2],SMILES,other results
,"Cc1cc(-c2ccnc3[nH]cc(F)c23)cc(F)c1[C@@]1(O)[C@H](C)CN(C(=O)[C@H](N)CO)C[C@@H]1C [Compound 312, (R)-2-amino-1-((3S,4R,5R)-4-(2-fluoro-4-(3-fluoro-1H-pyrrolo[2,3-b]pyridin-4-yl)-6-methylphenyl)-4-hydroxy-3,5-dimethylpiperidin-1-yl)-3-hydroxypropan-1-one]",pIC50 [1]: 4.89
,"Cc1cc(-c2ccnc3[nH]cc(F)c23)cc(F)c1[C@@]1(O)[C@H](C)CN(C(=O)[C@@H](CO)N(C)C)C[C@@H]1C [Compound 313, (R)-2-(dimethylamino)-1-((3S,4S,5R)-4-(2-fluoro-4-(3-fluoro-1H-pyrrolo[2,3-b]pyridin-4-yl)-6-methylphenyl)-4-hydroxy-3,5-dimethylpiperidin-1-yl)-3-hydroxypropan-1-one]",pIC50 [1]: 4.72
,"OC1(c2ccc(-c3ccnc4[nH]cc(F)c34)cc2)CC2(CNC2)C1 [Compound 319, 6-(4-(3-fluoro-1H-pyrrolo[2,3-b]pyridin-4-yl)phenyl)-2-azaspiro[3.3]heptan-6-ol]",pIC50 [1]: 4.35
7.38,"NCC(O)(c1ccc(Cl)cc1)c1ccc(-c2ccnc3[nH]ccc23)cc1 (stereo not shown) [Compound 1001, 1-(4-(1H-pyrrolo[2,3-b]pyridin-4-yl)phenyl)-2-amino-1-(4-chlorophenyl)ethan-1-ol]",
7.57,"NCC(O)(c1ccc(Cl)cc1)c1ccc(-c2ccnc3[nH]cc(F)c23)cc1 (stereo not shown) [Compound 1002, 2-amino-1-(4-chlorophenyl)-1-(4-(3-fluoro-1H-pyrrolo[2,3-b]pyridin-4-yl)phenyl)ethan-1-ol]",
6.26,"COC(=O)c1c[nH]c2nccc(-c3ccc(C(O)(CN)c4ccc(Cl)cc4)cc3)c12 (stereo not shown) [Compound 1004, Methyl 4-(4-(2-amino-1-(4-chlorophenyl)-1-hydroxyethyl)phenyl)-1H-pyrrolo[2,3-b]pyridine-3-carboxylate]",
8.54,"NCC(O)(c1ccc(Cl)cc1)c1ccc(-c2ccnc3[nH]cc(Br)c23)cc1 (stereo not shown) [Compound 1005, 2-amino-1-(4-(3-bromo-1H-pyrrolo[2,3-b]pyridin-4-yl)phenyl)-1-(4-chlorophenyl)ethan-1-ol]",
6.87,"NCC(O)(c1ccc(Cl)cc1)c1ccc(-c2ccnc3[nH]cc(-c4ccccc4)c23)cc1 (stereo not shown) [Compound 1006, 2-amino-1-(4-chlorophenyl)-1-(4-(3-phenyl-1H-pyrrolo[2,3-b]pyridin-4-yl)phenyl)ethan-1-ol]",
6.82,"NCC(O)(c1ccc(Cl)cc1)c1ccc(-c2ccnc3[nH]cc(-c4cccnc4)c23)cc1 (stereo not shown) [Compound 1007, 2-amino-1-(4-chlorophenyl)-1-(4-(3-(pyridin-3-yl)-1H-pyrrolo[2,3-b]pyridin-4-yl)phenyl)ethan-1-ol]",
7.12,"NCC(O)(c1ccc(Cl)cc1)c1ccc(-c2ccnc3[nH]cc(Br)c23)nc1 (stereo not shown) [Compound 1011, 2-amino-1-(6-(3-bromo-1H-pyrrolo[2,3-b]pyridin-4-yl)pyridin-3-yl)-1-(4-chlorophenyl)ethan-1-ol]",
7.92,"NCC(=O)NCC(O)(c1ccc(Cl)cc1)c1ccc(-c2ccnc3[nH]cc(Cl)c23)cc1 (stereo not shown) [Compound 1021, 2-amino-N-(2-(4-(3-chloro-1H-pyrrolo[2,3-b]pyridin-4-yl)phenyl)-2-(4-chlorophenyl)-2-hydroxyethyl) acetamide]",
,"Cc1cc(-c2ccnc3[nH]cc(C#N)c23)cc(F)c1[C@@]1(O)[C@H](C)CN(C2CCS(=O)(=O)CC2)C[C@@H]1C [Compound 2002, 4-(4-((3S,4s,5R)-1-(1,1-dioxidotetrahydro-2H-thiopyran-4-yl)-4-hydroxy-3,5-dimethylpiperidin-4-yl)-3-fluoro-5-methylphenyl)-1H-pyrrolo[2,3-b]pyridine-3-carbonitrile]",pIC50 [3]: 4.24
,"Cc1cc(-c2ccnc3[nH]cc(C#N)c23)cc(F)c1[C@@]1(O)[C@H](C)CN(C(=O)CN)C[C@@H]1C [Compound 2004, 4-(3-fluoro-4-((3S,4s,5R)-1-glycyl-4-hydroxy-3,5-dimethylpiperidin-4-yl)-5-methylphenyl)-1H-pyrrolo[2,3-b]pyridine-3-carbonitrile]",pIC50 [3]: 4.29

# Source: patent US20250361230A1, “LATS Inhibitors and Uses Thereof” (The USA, as Represented by the Secretary, Dept. of Heath …, priority 2022, published 2025)
